# Measurements: patent US20250250264A1, “KIF18A INHIBITOR AND USE THEREOF” (Wuhan Humanwell Innovative Drug Research and Development …, priority 2022, published 2025)
# How the values were obtained:
# [1] = target: recombinant protein KIF18A (kinesin domain: aa 1-467) (Homo sapiens (Human), UniProt Q8NI77); assay: Assay on inhibition of KIF18A enzymatic activity (ADP-Glo); type: biochemical; conditions: KIF18A 80 nM, ATP 80 μM, 3 h at room temperature, ADP-Glo luminescence; read-out: IC50 (μM), inhibitory effects of compounds on KIF18A enzymatic activity
# Chain of recombinant protein KIF18A (kinesin domain: aa 1-467) (Q8NI77 1-467): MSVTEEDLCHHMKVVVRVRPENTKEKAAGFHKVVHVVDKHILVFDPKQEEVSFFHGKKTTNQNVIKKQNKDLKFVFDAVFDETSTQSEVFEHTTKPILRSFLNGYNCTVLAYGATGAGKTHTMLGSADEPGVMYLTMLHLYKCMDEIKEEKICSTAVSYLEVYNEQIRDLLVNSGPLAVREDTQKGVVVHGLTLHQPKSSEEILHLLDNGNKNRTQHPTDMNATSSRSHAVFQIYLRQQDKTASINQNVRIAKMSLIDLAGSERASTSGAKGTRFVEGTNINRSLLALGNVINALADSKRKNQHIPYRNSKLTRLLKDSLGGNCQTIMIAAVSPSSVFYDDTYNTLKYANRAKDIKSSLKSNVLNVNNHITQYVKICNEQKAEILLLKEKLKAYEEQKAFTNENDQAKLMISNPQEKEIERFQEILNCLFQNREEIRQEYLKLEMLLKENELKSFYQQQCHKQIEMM
# Chain of recombinant protein KIF18A (kinesin domain: aa 1-467) (P02550 whole entry partner, the tested form may be a part): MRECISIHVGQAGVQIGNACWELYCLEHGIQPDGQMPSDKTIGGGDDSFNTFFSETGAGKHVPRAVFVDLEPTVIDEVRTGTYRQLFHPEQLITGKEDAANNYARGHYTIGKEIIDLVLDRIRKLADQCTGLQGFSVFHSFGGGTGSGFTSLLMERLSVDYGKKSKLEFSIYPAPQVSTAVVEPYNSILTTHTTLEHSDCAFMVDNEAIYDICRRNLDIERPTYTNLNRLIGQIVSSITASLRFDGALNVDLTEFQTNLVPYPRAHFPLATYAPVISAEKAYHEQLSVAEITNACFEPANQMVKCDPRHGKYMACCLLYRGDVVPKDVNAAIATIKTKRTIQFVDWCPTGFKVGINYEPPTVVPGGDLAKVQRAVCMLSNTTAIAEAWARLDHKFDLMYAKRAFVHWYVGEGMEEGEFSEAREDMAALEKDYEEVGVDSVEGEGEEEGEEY
# Chain of recombinant protein KIF18A (kinesin domain: aa 1-467) (P02554 whole entry partner, the tested form may be a part): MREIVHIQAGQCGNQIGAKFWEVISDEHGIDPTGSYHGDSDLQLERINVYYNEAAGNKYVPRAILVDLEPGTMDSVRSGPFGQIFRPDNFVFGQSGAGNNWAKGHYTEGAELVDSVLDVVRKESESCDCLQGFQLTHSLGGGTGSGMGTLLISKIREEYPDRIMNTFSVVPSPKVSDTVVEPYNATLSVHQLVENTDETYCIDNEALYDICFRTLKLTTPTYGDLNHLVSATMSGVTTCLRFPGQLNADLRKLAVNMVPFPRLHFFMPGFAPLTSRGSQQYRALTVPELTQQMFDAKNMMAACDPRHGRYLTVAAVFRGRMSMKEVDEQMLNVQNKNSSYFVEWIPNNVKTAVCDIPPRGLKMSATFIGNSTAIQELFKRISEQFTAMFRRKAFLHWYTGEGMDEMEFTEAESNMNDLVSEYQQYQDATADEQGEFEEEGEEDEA
# Source text: The recombinant protein KIF18A (kinesin domain: aa 1-467) used in this assay was expressed by the Bac-to-Bac baculovirus expression system from Invitrogen, and the resulting protein was purified for use in this assay (Seki, M. et al. 2003 Nucleic Acids Res.). Quantitative detection of KIF18A enzymatic activity was completed using an ADP-Glo™ kinase assay kit (Promega Inc). Related procedures strictly followed the product instructions, which are briefly described as follows:
# The reaction system consisted of a test compound, the recombinant protein KIF18A (aa 1-467), ATP (Promega Inc), and an assay buffer. The test compound was prepared into a 0.5 mM stock solution using DMSO (Sigma Inc) and then serially diluted in DMSO. The assay buffer consisted of an aqueous solution of 15 mM Tris, 10 mM MgCl2 (Sigma Inc), 0.01% Pluronic F-68 (Life Technologies Inc), 1 μM paclitaxel (Cytoskeleton Inc), 30 μg/mL porcine tubulin (Cytoskeleton Inc), and 2% DMSO. The KIF18A protein (final concentration: 80 nM) and the compound at different concentrations (1 μL) were added to the prepared assay buffer (50 μL), and the mixture was incubated at room temperature for 15 min. Then, ATP (final concentration: 80 μM) was added to the reaction mixture, and the resulting mixture was incubated at room temperature for 3 h. After the reaction was completed, 5 μL of the ADP-Glo™ reagent and 2.5 μL of the reaction mixture were added to a 384-well plate (Grenier Inc). The resulting mixture was mixed homogeneously, then sealed by an aluminum foil sealing film, and incubated at room temperature in the dark for 40 min. Finally, 10 μL of the […] was added to each reaction well, and the mixture was incubated at room temperature in the dark for 40 min. After all reactions were completed, the luminescence values of the wells were read on a microplate reader (Molecular Device_SpectraMax Id5), and the inhibition ratios were calculated. The calculation formula for the inhibition rates was as follows: inhibition rate=(1−(compound group−blank group)/(negative control group−blank group))×100%. Then, based on the inhibition rates at different compound concentrations, the IC50 value of the test compound was calculated using the GraphPad Prism 8 software.
# NIH:OVCAR-3 cells = assay: Assay on inhibition of OVCAR3 tumor cell proliferation (CellTiter-Glo); type: cell-based; conditions: Homo sapiens, OVCAR-3, 72 h, 3 days of drug treatment, read-out: IC50 (μM), inhibitory effects of compounds on tumor cell proliferation
# Protocol: NIH:OVCAR-3 cells (ATCC, Cat No. HTB-161, purchased from Co-Bier) were seeded into a T75 culture flask and cultured in an RPMI 1640 medium containing 20% FBS for 3 days in preparation for subsequent culturing and seeding into a 96-well plate for the cell proliferation assay.
# The OVCAR3 cells were seeded at a density of 3000 cells/100 μL/well into the 96-well cell plate, and then the plate was incubated in an incubator (37° C., 5% CO2) for 18 h. On the second day, drug treatment was started. Serially diluted test compound solutions (each drug starting at a concentration of 10 μM, diluted in DMSO, with a dilution ratio of 1:3, and nine gradient points for each drug) or DMSO (negative control) was added to the medium in the plate at 100 μL/well, and a blank group was set up with only medium, but no seeded cell strains. After the drug addition, the plate was incubated in the incubator for another 3 days (37° C., 5% CO2). On the fourth day, plate detection was performed. To each well, 100 μL of CellTiter-Glo reagent (Promega G9243) was added. The plate was shaken for 5 min and then left to stand at room temperature for 5 min. The chemical luminescence signal value of each well was determined using a microplate reader (PerkinElmer EnVision®2104). Cell proliferation inhibition rate=(1−(compound group−blank group)/(DMSO group−blank group))×100%. Then, the IC50 value of each compound was calculated using the GraphPad Prism 8 software.
Compound,IC50 [1],IC50 (NIH:OVCAR-3 cells)
"Cc1cc(-c2nnc(-c3ccc(NS(=O)(=O)CCO)cc3N3CCC4(CC3)CC4)o2)nc(N2C[C@@H](F)[C@@H](F)C2)n1 [Example I-101, N-(4-(5-(2-((3S,4R)-3,4-Difluoropyrrolidin-1-yl)-6-methylpyrimidin-4-yl)-1,3,4-oxadiazol-2-yl)-3-(6-azaspiro[2.5]octan-6-yl)phenyl)-2-hydroxyethane-1-sulfonamide]",0.008 µM,0.26 µM
"O=c1ccc(-c2cnn(-c3ccc(NS(=O)(=O)CCO)cc3N3CCC4(CC3)CC4)c2)nn1C1CC(F)(F)C1 [Example I-121, N-(4-(4-(1-(3,3-Difluorocyclobutyl)-6-oxo-1,6-dihydropyridazin-3-yl)-1H-pyrazol-1-yl)-3-(6-azaspiro[2.5]octan-6-yl)phenyl)-2-hydroxyethane-1-sulfonamide]",0.003 µM,0.056 µM
"Cc1cc(-c2cnn(-c3ccc(NS(=O)(=O)CCO)cc3N3CCC4(CC3)CC4)c2)nc(C2CCC(F)(F)CC2)n1 [Example I-110, N-(4-(4-(2-(4,4-Difluorocyclohexyl)-6-methylpyrimidin-4-yl)-1H-pyrazol-1-yl)-3-(6-azaspiro[2.5]octan-6-yl)phenyl)-2-hydroxyethane-1-sulfonamide]",0.002 µM,0.061 µM

# The remaining lines, values ahead:
IC50 [1],IC50 (NIH:OVCAR-3 cells),Compound
0.011 µM,0.208 µM,"Cc1cc(-c2cnn(-c3ccc(NS(=O)(=O)CCO)cc3N3CCC(F)(F)CC3)c2)nc(N2CCC(F)(F)CC2)n1 [Example I-106, N-(3-(4,4-Difluoropiperidin-1-yl)-4-(4-(2-(4,4-difluoropiperidin-1-yl)-6-methylpyrimidin-4-yl)-1H-pyrazol-1-yl)phenyl)-2-hydroxyethane-1-sulfonamide]"
0.01 µM,0.115 µM,"Cc1cc(-c2nnc(-c3ccc(NS(=O)(=O)CCO)cc3N3CCC4(CC3)CC4)o2)nc(N2CC(F)(F)CC(F)(F)C2)n1 [Example I-100, N-(4-(5-(6-Methyl-2-(3,3,5,5-tetrafluoropiperidin-1-yl)pyrimidin-4-yl)-1,3,4-oxadiazol-2-yl)-3-(6-azaspiro[2.5]octan-6-yl)phenyl)-2-hydroxyethane-1-sulfonamide]"
0.011 µM,0.076 µM,"Cc1cc(-c2nnc(-c3ccc(NS(=O)(=O)[C@H](C)CO)cc3N3CCC4(CC3)CC4)o2)nc(N2CCC(F)(F)CC2)n1 [Example I-40, (R)—N-(4-(5-(2-(4,4-Difluoropiperidin-1-yl)-6-methylpyrimidin-4-yl)-1,3,4-oxadiazol-2-yl)-3-(6-azaspiro[2.5]octan-6-yl)phenyl)-1-hydroxypropane-2-sulfonamide]"
